In ChEMBL document CHEMBL5370582, “Heterolactone and Heterolactams A-M, Verticillane Diterpenoids with Anti-Inflammatory and Hepatoprotective Activities from the Soft Coral Heteroxenia ghardaqensis” (J Nat Prod, 2023):
Calls of active or inactive are those of the source. No cut-off for these calls is given here.

Species: Danio rerio
Experiment: Anti-inflammatory activity against CuSO4-induced inflammatory response in transgenic Zebrafish larvae assessed as reduction in number of macrophages at 20 uM pretreated for 2 hrs followed by CuSO4-stimulation and measured after 1 hr by fluorescence microscopy
Assay type: functional, organism-based
Details: time 3.0 hrs

| SMILES | Activity |
| --- | --- |
| COc1ccc2c(c1)c(CC(=O)O)c(C)n2C(=O)c1ccc(Cl)cc1 | Active |
| C[C@H]1CC[C@@H]2CCC3=C([C@@H](C[C@@H](C)CC(=O)C1)N(CCO)C3=O)C2(C)C | Active |
| C[C@H]1CC[C@@H]2CCC3=C(C2(C)C)[C@@](O)(C[C@@H](C)CC(=O)C1)N(CCc1ccccc1)C3=O | Active |
| C[C@H]1CC[C@@H]2CCC3=C([C@@H](C[C@@H](C)CC(=O)C1)N(CCc1ccccc1)C3=O)C2(C)C | Active |

Species: Danio rerio
Experiment: Hepatoprotective activity against isoniazid/alcohol-induced liver injury in transgenic Zebrafish larvae at 50 uM incubated for 72 hrs by fluorescence microscopy
Assay type: functional, organism-based
Details: not given

| SMILES | Activity |
| --- | --- |
| C[C@H]1CC[C@@H]2CCC3=C([C@@H](C[C@@H](C)CC(=O)C1)N(CCO)C3=O)C2(C)C | Active |
| CC(C)CCN1C(=O)[C@@]2(C)CC[C@H]3CC[C@H](C)CC(=O)C[C@H](C)/C=C\1[C@]2(O)C3(C)C | Active |
| C[C@H]1CC[C@@H]2CCC3=C(C2(C)C)[C@@](O)(C[C@@H](C)CC(=O)C1)NC3=O | Active |
| C[S+](CC[C@H](N)C(=O)[O-])C[C@H]1O[C@@H](n2cnc3c(N)ncnc32)[C@H](O)[C@@H]1O (stereo partly drawn) | Active |
